Test results: ChEMBL document CHEMBL4627269, “New thiopyrimidine-benzenesulfonamide conjugates as selective carbonic anhydrase II inhibitors: synthesis, in vitro biological evaluation, and molecular docking studies” (Bioorg Med Chem, 2020)
pKi: −log10 of the molar value.

Tests used:
Carbonic anhydrase 2 [1] = molecular target: T1, Carbonic anhydrase 2 (Homo sapiens, UniProt P00918); assay: Inhibition of recombinant human carbonic anhydrase 2 expressed in Escherichia coli BL21 (DE3) using 4-nitrophenyl acetate as substrate incubated for 10 mins prior to testing by spectrophotometric method
Carbonic anhydrase 9 = Carbonic anhydrase 9 (Homo sapiens, UniProt Q16790); assay: Inhibition of human carbonic anhydrase 9 incubated for 15 mins prior to testing measured for 10 to 100 secs by phenol red dye based stopped-flow CO2 hydration assay
Carbonic anhydrase 1 = Carbonic anhydrase 1 (Homo sapiens, UniProt P00915); assay: Inhibition of human carbonic anhydrase 1 incubated for 15 mins prior to testing measured for 10 to 100 secs by phenol red dye based stopped-flow CO2 hydration assay
Chain of Carbonic anhydrase 1 (P00915 whole entry): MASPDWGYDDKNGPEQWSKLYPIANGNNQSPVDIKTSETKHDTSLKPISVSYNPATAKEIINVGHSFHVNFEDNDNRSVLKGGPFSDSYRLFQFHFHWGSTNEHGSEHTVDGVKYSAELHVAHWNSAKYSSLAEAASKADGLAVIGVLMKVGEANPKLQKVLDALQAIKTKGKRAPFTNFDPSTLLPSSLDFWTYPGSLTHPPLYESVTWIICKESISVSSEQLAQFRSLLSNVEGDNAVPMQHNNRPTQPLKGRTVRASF

Carbonic anhydrase 12 = Carbonic anhydrase 12 (Homo sapiens, UniProt O43570); assay: Inhibition of human carbonic anhydrase 12 incubated for 15 mins prior to testing measured for 10 to 100 secs by phenol red dye based stopped-flow CO2 hydration assay
Chain of Carbonic anhydrase 12 (O43570 whole entry): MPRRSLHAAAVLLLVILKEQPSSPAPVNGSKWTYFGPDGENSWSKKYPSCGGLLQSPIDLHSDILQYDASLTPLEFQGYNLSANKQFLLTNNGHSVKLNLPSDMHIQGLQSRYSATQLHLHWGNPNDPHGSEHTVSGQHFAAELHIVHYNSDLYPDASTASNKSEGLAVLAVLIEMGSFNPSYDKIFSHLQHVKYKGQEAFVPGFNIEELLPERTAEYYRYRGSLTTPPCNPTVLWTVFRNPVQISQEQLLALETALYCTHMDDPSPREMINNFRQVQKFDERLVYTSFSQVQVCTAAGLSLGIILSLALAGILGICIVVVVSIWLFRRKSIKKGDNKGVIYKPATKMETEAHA

Carbonic anhydrase 2 [2] = molecular target: T1, Carbonic anhydrase 2; assay: Inhibition of recombinant human carbonic anhydrase 2 incubated for 15 mins prior to testing measured for 10 to 100 secs by phenol red dye based stopped-flow CO2 hydration assay

SMILES | pKi (Carbonic anhydrase 9) | pKi (Carbonic anhydrase 1) | also measured
NS(=O)(=O)c1ccc(Nc2ccnc(NS(=O)(=O)c3cccnc3)n2)cc1 | – | – | pKi (Carbonic anhydrase 2 [1]): 8.40
O=C(CSc1nccc(Nc2ccc(S(=O)(=O)Nc3cncs3)cc2)n1)c1ccc(Cl)cc1 | 6.26 | – | –
Cc1cc(NS(=O)(=O)c2ccc(Nc3ccnc(SCC(=O)c4ccc(F)cc4)n3)cc2)no1 | 4.04 | < 4.00 | pKi (Carbonic anhydrase 12): < 4.00
O=C(CSc1nccc(Nc2ccc(S(=O)(=O)Nc3cncs3)cc2)n1)c1ccc(C(F)(F)F)cc1 | < 4.00 | – | –
NS(=O)(=O)c1ccc(Nc2ccnc(SCC(=O)c3ccc(Br)cc3)n2)cc1 | < 4.00 | – | –
NS(=O)(=O)c1ccc(Nc2ccnc(SCC(=O)c3ccc(Cl)cc3)n2)cc1 | < 4.00 | – | –
COc1ccc(C(=O)CSc2nccc(Nc3ccc(S(N)(=O)=O)cc3)n2)cc1 | 5.29 | – | –
NS(=O)(=O)c1ccc(Nc2ccnc(SCC(=O)c3ccccc3)n2)cc1 | 6.80 | – | –
Cc1cc(NS(=O)(=O)c2ccc(Nc3ccnc(SCC(=O)c4ccc(Cl)cc4)n3)cc2)no1 | 5.05 | < 4.00 | –
O=C(CSc1nccc(Nc2ccc(S(=O)(=O)Nc3cncs3)cc2)n1)c1ccccc1 | < 4.00 | – | –
O=C(CSc1nccc(Nc2ccc(S(=O)(=O)Nc3ccccn3)cc2)n1)c1ccccc1 | < 4.00 | < 4.00 | –
O=C(CSc1nccc(Nc2ccc(S(=O)(=O)Nc3ccccn3)cc2)n1)c1ccc(Cl)cc1 | < 4.00 | < 4.00 | –
CC(=O)NS(=O)(=O)c1ccc(Nc2ccnc(SCC(=O)c3ccc(Cl)cc3)n2)cc1 | < 4.00 | – | –
NS(=O)(=O)c1ccc(Nc2ccnc(SCC(=O)c3ccc(F)cc3)n2)cc1 | 6.09 | – | –
COc1ccc(C(=O)CSc2nccc(Nc3ccc(S(=O)(=O)Nc4ncccn4)cc3)n2)cc1 | 5.60 | < 4.00 | pKi (Carbonic anhydrase 2 [2]): < 4.00
NS(=O)(=O)c1ccc(Nc2ccnc(SCC(=O)c3ccc(-c4ccccc4)cc3)n2)cc1 | 6.64 | < 4.00 | –
COc1ccc(C(=O)CSc2nccc(Nc3ccc(S(=O)(=O)Nc4ccccn4)cc3)n2)cc1 | < 4.00 | < 4.00 | pKi (Carbonic anhydrase 2 [2]): < 4.00
NS(=O)(=O)c1ccc(Nc2ccnc(NS(=O)(=O)c3cccc(C(F)(F)F)c3)n2)cc1 | – | – | pKi (Carbonic anhydrase 2 [1]): 9.00
COc1ccc(C(=O)CSc2nccc(Nc3ccc(S(=O)(=O)Nc4cc(C)on4)cc3)n2)cc1 | < 4.00 | – | –
NS(=O)(=O)c1ccc(Nc2ccnc(SCC(=O)c3ccc(C(F)(F)F)cc3)n2)cc1 | 4.41 | – | –
